In patent US20210267944A1 (BioXcel Therapeutics, Inc., priority 2018, published 2021):
Counter-ions that a name gives are not always drawn. Like-named read-outs stand apart in the source and are kept apart here.

Assays:
[1] = SDAT study
[2] = schizophrenia study, one subject
Protocol: Adverse events (AEs), including serious adverse events (SAEs), were assessed, recorded, and reported in accordance with FDA guidance. Should any SAE occur, the study would be stopped until a cause for the SAE was determined.

[3] = tested on: subjects suffering from schizophrenia
From the text: The level of agitation in subjects may be assessed herein using the PEC (Positive and Negative Symptom Scale—Excitatory Component) scale, which is a known five item scale that measures symptoms of agitation, namely excitement, tension, hostility, uncooperativeness, and poor impulse control, with each item rated from 1 (absent) to 7 (extremely severe). Combined scores range from 5 to 35. A score of 20 or more corresponds to severe agitation.

clinical = details: human, in vivo
Protocol: These samples were assayed for the concentration of the drug in those participants randomized to test product.

## Cc1cccc([C@H](C)c2cnc[nH]2)c1C [dexmedetomidine hydrochloride]
[1]
  adverse events: No adverse event was reported
[2]
  AE Term: Headache
[2]; headache
  AE Outcome: Recovered
  AE Relationship: Possibly Related
  AE Severity: Moderate
[3]; Patient No. 1, treatment arm, 0 min
  PEC values after infusion start: 9
[3]; Patient No. 1, treatment arm, 15 min
  PEC values after infusion start: 5
[3]; Patient No. 2, treatment arm, 0 min
  PEC values after infusion start: 16
[3]; Patient No. 2, treatment arm, 15 min
  PEC values after infusion start: 13
[3]; Patient No. 2, treatment arm, 30 min
  PEC values after infusion start: 12
[3]; Patient No. 2, treatment arm, 45 min
  PEC values after infusion start: 11
[3]; Patient No. 2, treatment arm, 60 min
  PEC values after infusion start: 9
[3]; Patient No. 2, treatment arm, 75 min
  PEC values after infusion start: 7
[3]; Patient No. 3, treatment arm, 0 min
  PEC values after infusion start: 12
[3]; Patient No. 3, treatment arm, 15 min
  PEC values after infusion start: 12
[3]; Patient No. 3, treatment arm, 30 min
  PEC values after infusion start: 10
[3]; Patient No. 3, treatment arm, 45 min
  PEC values after infusion start: 7
[3]; Patient No. 3, treatment arm, 60 min
  PEC values after infusion start: 6
[3]; Patient No. 4, treatment arm, 0 min
  PEC values after infusion start: 9
[3]; Patient No. 4, treatment arm, 15 min
  PEC values after infusion start: 9
[3]; Patient No. 4, treatment arm, 30 min
  PEC values after infusion start: 8
[3]; Patient No. 4, treatment arm, 45 min
  PEC values after infusion start: 8
[3]; Patient No. 4, treatment arm, 60 min
  PEC values after infusion start: 7
[3]; Patient No. 4, treatment arm, 75 min
  PEC values after infusion start: 7
[3]; Patient No. 4, treatment arm, 90 min
  PEC values after infusion start: 7
[3]; Patient No. 4, treatment arm, […]
  PEC values after infusion start: 7
[3]; Patient No. 11, treatment arm, 0 min
  PEC values after infusion start: 13
[3]; Patient No. 11, treatment arm, 15 min
  PEC values after infusion start: 13
[3]; Patient No. 11, treatment arm, 30 min
  PEC values after infusion start: 11
[3]; Patient No. 11, treatment arm, 45 min
  PEC values after infusion start: 9
[3]; Patient No. 11, treatment arm, 60 min
  PEC values after infusion start: 9
[3]; Patient No. 11, treatment arm, 75 min
  PEC values after infusion start: 7
[3]; Patient No. 12, treatment arm, 0 min
  PEC values after infusion start: 13
[3]; Patient No. 12, treatment arm, 15 min
  PEC values after infusion start: 13
[3]; Patient No. 12, treatment arm, 30 min
  PEC values after infusion start: 13
[3]; Patient No. 12, treatment arm, 45 min
  PEC values after infusion start: 10
[3]; Patient No. 12, treatment arm, 60 min
  PEC values after infusion start: 10
[3]; Patient No. 12, treatment arm, 75 min
  PEC values after infusion start: 8
[3]; Patient No. 12, treatment arm, 90 min
  PEC values after infusion start: 6
[3]; Patient No. 12, treatment arm, […]
  PEC values after infusion start: 5
[3]; Patient No. 14, treatment arm, 0 min
  PEC values after infusion start: 10
[3]; Patient No. 14, treatment arm, 15 min
  PEC values after infusion start: 9
[3]; Patient No. 14, treatment arm, 30 min
  PEC values after infusion start: 6
[3]; Patient No. 14, treatment arm, 45 min
  PEC values after infusion start: 6
[3]; Patient No. 14, treatment arm, 60 min
  PEC values after infusion start: 5
[3]; Patient No. 14, treatment arm, 75 min
  PEC values after infusion start: 5
[3]; Patient No. 16, treatment arm, 0 min
  PEC values after infusion start: 10
[3]; Patient No. 16, treatment arm, 15 min
  PEC values after infusion start: 9
[3]; Patient No. 16, treatment arm, 30 min
  PEC values after infusion start: 6
[3]; Patient No. 16, treatment arm, 45 min
  PEC values after infusion start: 6
[3]; Patient No. 16, treatment arm, 60 min
  PEC values after infusion start: 7
[3]; Patient No. 16, treatment arm, 75 min
  PEC values after infusion start: 5
[3]; Patient No. 17, treatment arm, 0 min
  PEC values after infusion start: 10
[3]; Patient No. 17, treatment arm, 15 min
  PEC values after infusion start: 8
[3]; Patient No. 17, treatment arm, 30 min
  PEC values after infusion start: 7
[3]; Patient No. 17, treatment arm, 45 min
  PEC values after infusion start: 5
[3]; Schizophrenia Study
  Efficacy (Primary/secondary end points): subjects with PEC score below 7: 9/10 PEC score
[3]; schizophrenia
  patients in the treatment arm with agitation reduced to a minimum (PEC score of 7 or below): 9 out of 10
clinical
  Time to reach Cmax, range: 60 to 150 min
  maximum dexmedetomidine concentrations, range: 102 to 380 pg/mL
clinical; 0 h
  Plasma concentrations: 0 ng/mL
clinical; 2 h
  Plasma concentrations: 0.31805 ng/mL
clinical; Plasma concentrations
  concentration at 0 h: 0 ng/mL
  concentration at 2 h: 0.378 ng/mL
